Where two headings read alike, the source gives them in different places. Peptide text beside a SMILES is read from it.
How the values were obtained:
[1] = Ultracentrifugation pellet / solid-state NMR of assemblies; type: physicochemical; settings: 10 mg/mL, 150,000 RCF, 30 minutes, 4 °C
Protocol: To experimentally validate E1:ESBP3 peptide mixtures, solid-state NMR experiments were pursued. ^13C solid-state NMR measurements were conducted using cross-polarization magic angle spinning (^1H-^13C CPMAS) to evaluate sample structural order and structural differences between samples. The peptides were not isotopically enriched, so the ^13C signal was from the 1% natural abundance for ^13C.
After peptide dissolution at 10 mg/mL, the samples were concentrated by ultracentrifugation for 30 minutes in Bruker 3.22 mm NMR rotors at 4 °C and 150,000 RCF in Ultra-clear tubes of SW-41 Ti swinging bucket rotor fitted onto a Beckman Optima XPN-100 centrifuge. A 11.75 T magnet Bruker Avance III HD 500 spectrometer (500 MHz, ^1H NMR Larmor frequency) equipped with a room temperature 3.2 mm Bruker Low-E ^1H/^13C/^15N NMR probe was used for measurements. ^13C chemical shift referencing was conducted using adamantane referenced to tetramethylsilane. 1D ^13C cross-polarization magic angle spinning (CPMAS) spectra were collected using the standard Bruker cp pulse sequence. A 10 kHz magic angle spinning speed was used for all samples. The channels frequency for the optimization of the Hartmann-Hahn condition for ^1H and ^13C are 500.133 MHz and 125.771 MHz, respectively. A recycle delay time of 4 seconds (d1) and dwell time of 5 μs (DW) were used. Acquisition time was set to 10.24 ms. […]

[2] = tested on: SARS-CoV-2 live virus (B.1 lineage), Vero E6 cells; type: cell-based
A549 cells = test: Cytocompatibility (CCK8); type: cell-based, human; settings: human alveolar epithelial A549 cells; 0.01-1 mM
Protocol: (§1) Cytocompatibility of the peptides was evaluated at 1, 0.1, and 0.01 mM with A549 cells (ATCC CCL-185) cultured in complete media consisting of 90% F-12K and 10% FBS. The A549 cells were utilized after their first passage and seeded at 10,000 cells/well in a 96-well plate for 24 hours. The conditions were prepared in serum-free A549 media and introduced into the wells for 6 hours, after which the condition media were aspirated, the wells were washed once with PBS, and 10 µL of CCK8 was added to 100 µL of PBS[32]. The plate was incubated for 1 hour and read on a Tecan M200 Infinite plate reader at an absorbance of 450 nm with a reference wavelength of 650 nm. The results were analyzed and normalized to the serum-free media control[28],[32],[76].

Cytocompatibility (CCK8) = type: cell-based, human; settings: human, A549 cells, read-out: cytocompatibility, normalized to serum free media; for viability at 6 h, 10 µM: 0.01 mM peptide; for viability at 6 h, 100 µM: 0.1 mM peptide; for viability at 6 h, 1000 µM: 1 mM peptide
Protocol: as §1

[3] = Stability testing by HPLC / LC-MS; type: physicochemical
Protocol: Chromatographic analyses were performed on an analytical high-pressure liquid chromatography system (HPLC) with MassLynx software (Version 4.1). Runs were carried out on a Zorbax C3 column (5 µm, 150 mm × 4.6 mm) with a 1.0 mL/min flow rate. The mobile phase A was 0.1% trifluoroacetic acid in MilliQ water and mobile phase B was 0.1% trifluoroacetic acid in acetonitrile. Gradients started with mobile phase A at 75% and ran at a 1% ramp to 65% mobile phase B. Samples were diluted using 3:7 ACN:MilliQ water to a concentration of 1.0 mg/mL and then passed through a 0.22 μm syringe filter before injecting 30 μL of the sample. The column and autosampler were maintained at 40 °C and 25 °C, respectively. A Waters 2487 UV detector monitored 215 nm, and mass spectra were collected from 50 to 3000 AMU. The capillary voltage was 3.00 kV, cone voltage was 30.00 V, extractor voltage was 3.00 V, RF lens voltage was 0.1 V, source temperature was 100 °C, cone gas flow was 50.0 L/h, and desolvation gas flow was 500 L/h[30],[88] for the electrospray source.
[…] The stability of peptide samples was then measured using HPLC[87].

[4] = Daily repeat IV dosing, 10 days (chronic PK/safety); type: in vivo, rat (female Wistar)
Protocol: (§2) Female Wistar rats (225–250 g, 8–12 weeks old) were observed and acclimatized for 2 weeks prior to running the studies. They were housed in a controlled environment with temperature at […] and 40–70% humidity. They were kept in an alternating 12-hour light/dark cycle, and food, and water was provided as pellets ad libitum. Female Wistar Rats were used for the pharmacokinetics and the drug clearance analysis from the blood. The two hydrogels (ESBP2 and ESBP3) at 10 mg/ml concentration were injected into the rats via the lateral tail vein. For subcutaneous implants, the substance was injected between the shoulder blades and above the lumbar vertebrae, 200 μL each, using a 25-gauge needle. The hydrogel bolus was prepared with 0.9% saline and was injected within 1–2 minutes. The volume injected was approximately 1% of the total body weight of the rat, which was calculated prior to the dosing. The initial blood draw was performed for baseline, and the subsequent blood collection was performed from the lateral vein using 25 g butterfly needles.
Female Wistar rats (225–250 g, 8–12 weeks old) were weighed and repeatedly dosed (1% by weight) IV with ESBP2 or ESBP3 daily at 10 mg/mL (~3 mM). Rat blood samples were collected daily prior to injection via tail vein. Post 10 days of treatment, animals were allowed to recover for 10 days and then sacrificed. Plasma was stored and analyzed as above. The body weight was recorded every day prior to the blood collection.

[5] = Acute IV pharmacokinetics; type: in vivo, rat (female Wistar); settings: ESBP3 200μL (10 mg/mL) IV bolus, Wistar rats (n=8)
Protocol: as §2
Rat blood samples were collected at 0, 5, 15, 30 minutes, and 1, 2, 4, 8, and 24 hours post-injection timepoints for Acute PK and were aliquoted out into heparinized tubes to prevent coagulation and stored on top of ice packs. Blood collected in K2EDTA anticoagulant tubes was processed to plasma frozen via centrifugation at 13000 RCF for 10 minutes at 4 °C and stored at −80 °C till analysis using HPLC. The body weight was recorded every day prior to the blood collection.

CC[C@H](C)[C@H](NC(=O)[C@H](Cc1ccc(O)cc1)NC(=O)[C@@H](NC(=O)[C@H](CCCCN)NC(=O)[C@H](Cc1ccc(O)cc1)NC(=O)[C@H](CCC(N)=O)NC(=O)CNC(=O)[C@H](CCC(=O)O)NC(=O)[C@H](CC(C)C)NC(=O)[C@H](CO)NC(=O)[C@H](CC(C)C)NC(=O)[C@H](CO)NC(=O)[C@H](CC(C)C)NC(=O)[C@H](CO)NC(=O)[C@H](CC(C)C)NC(=O)[C@H](CO)NC(=O)[C@H](CC(C)C)NC(=O)[C@H](CO)NC(=O)[C@H](CC(C)C)NC(=O)[C@H](CO)NC(=O)[C@H](CCC(=O)O)NC(C)=O)[C@@H](C)O)C(=O)N[C@@H](CC(=O)O)C(=O)N[C@@H](CCCCN)C(=O)N[C@@H](CC(N)=O)C(=O)N[C@@H](CC(N)=O)C(=O)N[C@@H](Cc1c[nH]cn1)C(=O)N[C@@H](Cc1ccc(O)cc1)C(=O)N[C@@H](C)C(=O)N[C@@H](CCC(=O)O)C(=O)N[C@@H](CC(=O)O)C(=O)N[C@@H](CCC(=O)O)C(=O)N[C@@H](CCCNC(=N)N)C(=O)N[C@@H](Cc1ccc(O)cc1)C(=O)N[C@@H](CCCCN)C(N)=O [ESBP3] (Ac-ESLSLSLSLSLSLEGQYKTYIDKNNHYAEDERYK-NH2)
ultracentrifuge pellet (assembly into nanofibers) [1]: no pellet
Comparative, Average [2]: 66.6154
inhibition of live virus, in words [2]: dose-dependent inhibition of live virus
live virus plaque inhibition, in words [2]: no major differences
cytocompatibility, in words (A549 cells): excellent cytocompatibility
viability at 6 h, 10 µM (Cytocompatibility (CCK8); replicate 1, CCK8, 6 h): 91.9%
viability at 6 h, 10 µM (Cytocompatibility (CCK8); replicate 2, CCK8, 6 h): 85.4%
viability at 6 h, 100 µM (Cytocompatibility (CCK8); replicate 1, CCK8, 6 h): 87.2%
viability at 6 h, 100 µM (Cytocompatibility (CCK8); replicate 2, CCK8, 6 h): 97.6%
viability at 6 h, 100 µM (Cytocompatibility (CCK8); replicate 3, CCK8, 6 h): 85.4%
viability at 6 h, 1000 µM (Cytocompatibility (CCK8); replicate 1, CCK8, 6 h exposure, absorbance 450 nm): 106%
viability at 6 h, 1000 µM (Cytocompatibility (CCK8); replicate 2, CCK8, 6 h): 125%
viability at 6 h, 1000 µM (Cytocompatibility (CCK8); replicate 3, CCK8, 6 h): 119%
stability of lyophilized peptide, in words ([3]; -20 °C, 4 °C, 25 °C and 37°C over 10 weeks, HPLC/LC-MS): exceptional
stability, in words ([3]; lyophilized form and in formulation at a variety of temperatures over 12 weeks, HPLC): excellent stability
degradation in aqueous formulation, in words ([3]; over 10 weeks, LC-MS): minimal
repeat IV dosing safety, in words ([4]; daily IV for 10 days, ~1 w% (10 mg/mL), 225-250 g adult rats): no adverse effect
significant changes in body weight (ESBP3 also animal behavior, adverse events, gross organ morphology) compared to carrier ([4]; daily repeated IV dosing for 10 days, rats): no
eliminated by [5]: ≤ 8 h
Cmax ([5]; female, rat, plasma, 2 mg, at 5 min, read-out: observed maximum concentration): ~550 µg/mL
AUC ([5]; female, rat, plasma, 2 mg, read-out: AUC): 395 µg·h/mL
